Results: ChEMBL document CHEMBL1201862, “PubChem BioAssay data set” (2004)
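96-well plates; 48 h exposure; 5 concentrations. Endpoints by linear interpolation between flanking doses. Not reached: highest tested concentration assigned. Here, GI50 denotes the concentration required for 50% inhibition of growth.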 Activity calls are given as the source filed them. Cut-off read from the data, not from the text of the source: active = GI50 up to about 1.1 µM and inactive = higher.

Tests used:
Test in all cases: NCI tumour cell line growth inhibition, 48 h
[1] = test system: HL-60
[2] = test system: UACC-62
[3] = test system: SF-295
[4] = test system: T47D
[5] = test system: MDA-N
[6] = test system: SN12C
[7] = test system: SNB-75
[8] = test system: M14
[9] = test system: NCI-H23
[10] = test system: OVCAR-5
[11] = test system: EKVX
[12] = test system: SK-MEL-5
[13] = test system: CAKI-1
[14] = test system: OVCAR-3
[15] = test system: SW-620
[16] = test system: SF-539
[17] = test system: UACC-257
[18] = test system: TK-10
[19] = test system: MDA-MB-435
[20] = test system: PC-3

Measured: GI50

O=C1C2C3C4C1C1C2[C@H](OCc2ccccc2)C3C1[C@H]4OCc1ccccc1 (stereo not given in full)
inactive: [1] 22.5 µM | [2] 41.5 µM | [3] > 100 µM | [4] 34.4 µM | [5] > 100 µM | [6] > 100 µM | [7] 38.9 µM | [8] 51.8 µM | [9] 48.8 µM | [10] 24.3 µM | [11] 27.6 µM | [12] 36.3 µM | [13] 41.7 µM | [14] 60.5 µM | [15] 46 µM | [16] 75.2 µM | [17] 33 µM | [18] > 100 µM | [19] 61.4 µM | [20] 36.1 µM

COc1ccc(C(OCC2OC(n3ccc(Oc4c(F)c(F)c(F)c(F)c4F)nc3=O)CC2OP(OCCC#N)N(C(C)C)C(C)C)(c2ccccc2)c2ccc(OC)cc2)cc1 (stereo not given)
inactive: [1] > 100 µM | [2] > 100 µM | [3] > 100 µM | [4] > 100 µM | [5] > 100 µM | [6] > 100 µM | [7] > 100 µM | [8] > 100 µM | [9] 42.8 µM | [10] > 100 µM | [11] > 10 µM | [12] 68.2 µM | [13] > 100 µM | [14] > 100 µM | [15] > 100 µM | [16] > 100 µM | [17] > 100 µM | [18] > 100 µM | [19] > 100 µM | [20] > 100 µM

NC1CC2C3CCC2C1C3=O (stereo not given)
inactive: [1] > 100 µM | [2] > 100 µM | [3] > 100 µM | [4] > 100 µM | [5] > 100 µM | [6] > 100 µM | [7] 4.76 µM | [8] > 100 µM | [9] > 100 µM | [10] > 100 µM | [11] > 100 µM | [12] > 100 µM | [13] > 100 µM | [14] > 100 µM | [15] > 100 µM | [16] > 100 µM | [17] > 100 µM | [18] > 100 µM | [19] > 100 µM | [20] > 100 µM
